Data: PubChem BioAssay AID1745844 (Carcinogenic Potency Database (CPDB), 2022)
Where “and” joins values, the source holds several entries; their conditions need not be identical. Identical values can stand only once. Calls of active or inactive are those of the source. The rule behind the calls is not given here.

Tested on: rodent lifetime carcinogenesis bioassay, tumor incidence TD50
Test: carcinogenic potency in animals, long-term in vivo studies, CPDB compilation (AID 1745844)

CCCOC(=O)c1cc(O)c(O)c(O)c1
TD50 (mouse, strain B6C3F1, females, in feed, site: liver, lesion: hepatocellular adenoma + hepatocellular carcinoma + neoplastic nodule, dosed 103 weeks, study length 105 weeks): 21400 mg/kg/day | TD50 (mouse, strain B6C3F1, females, in feed, site: liver, lesion: hepatocellular adenoma, dosed 103 weeks, study length 105 weeks): 8260 mg/kg/day (inactive) | TD50 (mouse, strain B6C3F1, females, in feed, site: lung, lesion: alveolar/bronchiolar adenoma + alveolar/bronchiolar carcinoma, dosed 103 weeks, study length 105 weeks): 44300 mg/kg/day | TD50 (mouse, strain B6C3F1, males, in feed, site: all sites, lesion: lymphoma, histiocytic type, dosed 103 weeks, study length 105 weeks): 15100 mg/kg/day | TD50 (mouse, strain B6C3F1, males, in feed, site: all sites, lesion: lymphoma, dosed 103 weeks, study length 105 weeks): 6540 mg/kg/day (inactive) | TD50 (mouse, strain B6C3F1, males, in feed, site: all sites, lesion: malignant lymphoma, dosed 103 weeks, study length 105 weeks): 12100 mg/kg/day | TD50 (mouse, strain B6C3F1, males, in feed, site: any site (literature study), lesion: several types, types named in the paper, dosed 103 weeks, study length 105 weeks): 3640 mg/kg/day | TD50 (mouse, strain B6C3F1, males, in feed, site: lung, lesion: alveolar/bronchiolar adenoma + alveolar/bronchiolar carcinoma, dosed 103 weeks, study length 105 weeks): 55600 mg/kg/day | carcinogen call (rat, strain F344/DuCrj, males, in feed, site: esophagus, lesion: one or several types, types not named, dosed 52 weeks, study length 52 weeks): negative (inactive) | carcinogen call (rat, strain F344/DuCrj, males, in feed, site: forestomach, lesion: one or several types, types not named, dosed 52 weeks, study length 52 weeks): negative (inactive) | carcinogen call (rat, strain F344/DuCrj, males, in feed, site: liver, lesion: one or several types, types not named, dosed 52 weeks, study length 52 weeks): negative (inactive) | TD50 (rat, strain Fischer 344, females, in feed, site: mammary gland, lesion: adenoma, dosed 103 weeks, study length 105 weeks): 8080 mg/kg/day (inactive) | TD50 (rat, strain Fischer 344, males, in feed, site: adrenal gland, lesion: pheochromocytoma + pheochromocytoma, malignant, dosed 103 weeks, study length 105 weeks): 613 mg/kg/day | TD50 (rat, strain Fischer 344, males, in feed, site: adrenal gland, lesion: pheochromocytoma, dosed 103 weeks, study length 105 weeks): 613 mg/kg/day | TD50 (rat, strain Fischer 344, males, in feed, site: pancreatic islets, lesion: islet-cell adenoma + islet-cell carcinoma, dosed 103 weeks, study length 105 weeks): 840 mg/kg/day | TD50 (rat, strain Fischer 344, males, in feed, site: pancreatic islets, lesion: islet-cell adenoma, dosed 103 weeks, study length 105 weeks): 749 mg/kg/day (inactive) | TD50 (rat, strain Fischer 344, males, in feed, site: preputial gland, lesion: adenocarcinoma + adenoma + carcinoma, dosed 103 weeks, study length 105 weeks): 1040 mg/kg/day | TD50 (rat, strain Fischer 344, males, in feed, site: thyroid gland, lesion: follicular-cell adenoma + follicular-cell carcinoma, dosed 103 weeks, study length 105 weeks): 6870 mg/kg/day

COP(=O)(OC)OC(=CCl)c1cc(Cl)c(Cl)cc1Cl
TD50 (mouse, strain B6C3F1, females, in feed, site: any site (literature study), lesion: several types, types named in the paper, dosed 80 weeks, study length 92 weeks): 7880 mg/kg/day | TD50 (mouse, strain B6C3F1, females, in feed, site: kidney, lesion: several types, types named in the paper, dosed 103 weeks, study length 103 weeks): 32100 mg/kg/day | TD50 (mouse, strain B6C3F1, females, in feed, site: liver, lesion: hepatocellular adenoma + hepatocellular carcinoma + neoplastic nodule, dosed 80 weeks, study length 92 weeks): 905 mg/kg/day | TD50 (mouse, strain B6C3F1, females, in feed, site: liver, lesion: hepatocellular carcinoma + neoplastic nodule, dosed 80 weeks, study length 90 weeks): 1070 mg/kg/day | TD50 (mouse, strain B6C3F1, females, in feed, site: liver, lesion: hepatocellular carcinoma + neoplastic nodule, dosed 80 weeks, study length 92 weeks): 905 mg/kg/day | TD50 (mouse, strain B6C3F1, females, in feed, site: liver, lesion: hepatocellular carcinoma, dosed 103 weeks, study length 103 weeks): 12400 mg/kg/day and 8990 mg/kg/day | TD50 (mouse, strain B6C3F1, females, in feed, site: liver, lesion: neoplastic nodule, dosed 80 weeks, study length 90 weeks): 1380 mg/kg/day | TD50 (mouse, strain B6C3F1, females, in feed, site: liver, lesion: several types, types named in the paper, dosed 103 weeks, study length 103 weeks): 10200 mg/kg/day and 6330 mg/kg/day | TD50 (mouse, strain B6C3F1, females, in feed, site: lung, lesion: alveolar/bronchiolar adenoma + alveolar/bronchiolar carcinoma, dosed 80 weeks, study length 92 weeks): 7790 mg/kg/day | TD50 (mouse, strain B6C3F1, males, in feed, site: any site (literature study), lesion: several types, types named in the paper, dosed 80 weeks, study length 92 weeks): 295 mg/kg/day | TD50 (mouse, strain B6C3F1, males, in feed, site: kidney, lesion: several types, types named in the paper, dosed 103 weeks, study length 103 weeks): 4420 mg/kg/day | TD50 (mouse, strain B6C3F1, males, in feed, site: kidney, lesion: tubular adenoma, dosed 103 weeks, study length 103 weeks): 37600 mg/kg/day | TD50 (mouse, strain B6C3F1, males, in feed, site: kidney, lesion: tubular carcinoma, dosed 103 weeks, study length 103 weeks): 5260 mg/kg/day | TD50 (mouse, strain B6C3F1, males, in feed, site: liver, lesion: hepatocellular adenoma + hepatocellular carcinoma + neoplastic nodule, dosed 80 weeks, study length 92 weeks): 228 mg/kg/day | TD50 (mouse, strain B6C3F1, males, in feed, site: liver, lesion: hepatocellular adenoma, dosed 103 weeks, study length 103 weeks): 18300 mg/kg/day | TD50 (mouse, strain B6C3F1, males, in feed, site: liver, lesion: hepatocellular carcinoma + neoplastic nodule, dosed 80 weeks, study length 90 weeks): 280 mg/kg/day | TD50 (mouse, strain B6C3F1, males, in feed, site: liver, lesion: hepatocellular carcinoma + neoplastic nodule, dosed 80 weeks, study length 92 weeks): 228 mg/kg/day | TD50 (mouse, strain B6C3F1, males, in feed, site: liver, lesion: hepatocellular carcinoma, dosed 80 weeks, study length 90 weeks): 534 mg/kg/day | TD50 (mouse, strain B6C3F1, males, in feed, site: liver, lesion: hepatocellular carcinoma, dosed 80 weeks, study length 92 weeks): 466 mg/kg/day | TD50 (mouse, strain B6C3F1, males, in feed, site: liver, lesion: hepatocellular carcinoma, dosed 103 weeks, study length 103 weeks): 1530 mg/kg/day | TD50 (mouse, strain B6C3F1, males, in feed, site: liver, lesion: neoplastic nodule, dosed 80 weeks, study length 90 weeks): 1770 mg/kg/day | TD50 (mouse, strain B6C3F1, males, in feed, site: liver, lesion: several types, types named in the paper, dosed 103 weeks, study length 103 weeks): 1150 mg/kg/day | TD50 (mouse, strain B6C3F1, males, in feed, site: lung, lesion: alveolar/bronchiolar adenoma + alveolar/bronchiolar carcinoma, dosed 80 weeks, study length 92 weeks): 401000 mg/kg/day | TD50 (rat, strain Osborne-Mendel, females, in feed, site: adrenal gland, lesion: cortical adenoma, dosed 80 weeks, study length 109 weeks): 2280 mg/kg/day | TD50 (rat, strain Osborne-Mendel, females, in feed, site: pituitary gland, lesion: chromophobe adenoma, dosed 80 weeks, study length 111 weeks): 1580 mg/kg/day (inactive) | TD50 (rat, strain Osborne-Mendel, females, in feed, site: thyroid gland, lesion: c-cell adenoma, dosed 80 weeks, study length 109 weeks): 1920 mg/kg/day | carcinogen call (rat, strain Osborne-Mendel, males, in feed, site: any site (literature study), lesion: several types, types named in the paper, dosed 80 weeks, study length 111 weeks): negative (inactive)

[N-]=[N+]=[N-]
TD50 (rat, strain Charles River CD (Sprague-Dawley), females, in feed, site: mammary gland, lesion: one or several types, types not named, dosed 78 weeks, study length 104 weeks): 3.01 mg/kg/day | TD50 (rat, strain Charles River CD (Sprague-Dawley), females, in feed, site: pituitary gland, lesion: chromophobe adenoma, dosed 78 weeks, study length 104 weeks): 16.1 mg/kg/day (inactive) | carcinogen call (rat, strain Charles River CD (Sprague-Dawley), males, in feed, site: pituitary gland, lesion: chromophobe adenoma, dosed 78 weeks, study length 104 weeks): negative (inactive) | TD50 (rat, strain Fischer 344, females, by gavage, site: any site (literature study), lesion: several types, types named in the paper, dosed 103 weeks, study length 104 weeks): 19.1 mg/kg/day (inactive) | TD50 (rat, strain Fischer 344, males, by gavage, site: any site (literature study), lesion: several types, types named in the paper, dosed 103 weeks, study length 104 weeks): 8.26 mg/kg/day | TD50 (rat, strain Fischer 344, males, by gavage, site: testis, lesion: interstitial-cell adenoma, bilateral + interstitial-cell adenoma, dosed 103 weeks, study length 104 weeks): 3.79 mg/kg/day (inactive)

C=C(C)C#N
carcinogen call (mouse, strain B6C3F1, females, by gavage, site: any site (literature study), lesion: several types, types named in the paper, dosed 104 weeks, study length 104 weeks): negative (inactive) | TD50 (mouse, strain B6C3F1, females, by gavage, site: lung, lesion: alveolar/bronchiolar adenoma + alveolar/bronchiolar carcinoma, dosed 104 weeks, study length 104 weeks): 178 mg/kg/day | carcinogen call (mouse, strain B6C3F1, males, by gavage, site: any site (literature study), lesion: several types, types named in the paper, dosed 104 weeks, study length 104 weeks): negative (inactive) | TD50 (mouse, strain B6C3F1, males, by gavage, site: lung, lesion: alveolar/bronchiolar adenoma + alveolar/bronchiolar carcinoma, dosed 104 weeks, study length 104 weeks): 160 mg/kg/day | TD50 (rat, strain Fischer 344, females, by gavage, site: any site (literature study), lesion: several types, types named in the paper, dosed 104 weeks, study length 104 weeks): 323 mg/kg/day (inactive) | TD50 (rat, strain Fischer 344, males, by gavage, site: subcutaneous tissue, lesion: fibrosarcoma + fibrous histiocytoma + sarcoma, dosed 104 weeks, study length 104 weeks): 205 mg/kg/day (inactive)
